Activity calls are given as the source filed them.
Experiments:
[1] = A549 cell cytotoxicity, dose response, cytotoxicity control, plate reader, cherry-pick, antagonist series (AID 743412); format: functional, cell-based
[2] = HepG2 cell cytotoxicity, dose response, cytotoxicity control, plate reader, cherry-pick, antagonist series (AID 743416); format: functional, cell-based
[3] = HEK293 cell cytotoxicity, dose response, cytotoxicity control, plate reader, cherry-picked samples (AID 743446); format: functional, cell-based
[4] = LGR2 antagonists, dose response, cell-based, HEK293, CRE-luciferase reporter, cherry pick (AID 743342); format: functional
[5] = target: Kappa-type opioid receptor (Homo sapiens, UniProt P41145); experiment: OPRK1 antagonists, late-stage follow-up, cell-based, fluorescence, dose response (AID 652032); format: functional
[6] = HeLa cell cytotoxicity, dose response, cytotoxicity control, 24 h, plate reader, powder samples, set 3 (AID 651864); format: functional, cell-based
[7] = Vero cell cytotoxicity, dose response, cytotoxicity control for Vif-APOBEC3G degradation inhibitor project, Vero cells (AID 1117358); format: functional; settings: Human immunodeficiency virus 1, Vero
Major prion protein = Major prion protein (Homo sapiens, UniProt P04156); format: functional, cell-based
Cytochrome P450 2C9 = Cytochrome P450 2C9 (Homo sapiens, UniProt P11712)
Cytochrome P450 2D6 = Cytochrome P450 2D6 (Homo sapiens, UniProt P10635);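 note: CYP2D6 member of a cytochrome P450 panel assay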
[8] = target: Protein-tyrosine kinase 2-beta (Homo sapiens, UniProt Q14289);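 note: potency of inhibitors of PYK2 kinase phosphorylation of poly-GT substrate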
cells [9] = experiment: cells
[10] = cytotoxicity in OVCAR8 ovarian cancer cells, dose response, PAX8 project, cell-based, plate reader, dry powder samples (AID 743197); format: functional; settings: OVCAR-8
Paired box protein Pax-8 = Paired box protein Pax-8 (Homo sapiens, UniProt Q06710); experiment: inhibitors of PAX8-driven TPO luciferase reporter, dose response, RMG-I cells, cherry-pick (AID 687027); format: functional, cell-based;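 note: luciferase reporter driven by Pax8 target thyroperoxidase promoter measured by SteadyGlo luminescence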
[11] = target: NAD-dependent protein deacylase sirtuin-5, mitochondrial (Homo sapiens, UniProt Q9NXA8); experiment: SIRT5 deacylase inhibitors, dose response, biochemical, fluorescence imaging, cherry-pick, set 6 (AID 720597)
[12] = A375 melanoma cell cytotoxicity, dose response, counter-screen for MITF inhibitor project, CellTiter-Glo luminescence, dry powder, set 2 (AID 624489); format: functional, cell-based; settings: A-375;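 note: actives are compounds lowering A375 viability meaning general cytotoxicity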
[13] = A375 melanoma cell viability loss, dose response, counter-screen for MITF inhibitor project, CellTiter-Glo luminescence, dry powder, set 4 (AID 624364); format: functional, cell-based; settings: A-375;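 note: A375 melanoma cells are MITF independent so this is a counter screen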
Galanin receptor type 3 = Galanin receptor type 3 (Homo sapiens, UniProt O60755); experiment: Fluorescence-based cell-based primary high throughput dose response assay to identify antagonists of the Galanin Receptor 3 (GalR3).; format: functional
[14] = target: COUP transcription factor 2 (Homo sapiens, UniProt P24468); experiment: Luminescence-based cell-based high throughput dose response assay to identify inhibitors of COUP-TFII (NR2F2).; format: functional;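 note: HEK293 cells transiently cotransfected with COUP-TFII expression vector and reporter; luciferase reporter luminescence driven by COUP-TFII from the pX2-168 reporter plasmid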
[15] = off-target signal loss in HeLa-CEM21 co-culture – HeLa F-luc CTL cells, cherry-picked, counter-screen for HIV-1 Env fusion inhibitor project, dose response (AID 652040); format: functional, cell-based;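 note: potency for signal decrease marking cytotoxic or nonspecific inhibition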
[16] = cytotoxicity in HEK-293T cells, dose response, cytotoxicity control for BCR NF-kB inhibitor project, luminescence, B-cell screen hits (AID 489021); format: functional, cell-based;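 note: HEK-293T cells carrying an NF-kB luciferase reporter; cells exposed to compound for about 14 hours before viability readout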
[17] = HepG2 cell cytotoxicity, dose response, cytotoxicity control for Shn3 inhibitor project, CellTiter-Glo, cherry-picked (AID 624134); format: functional, cell-based
[18] = Shn3 3'UTR reporter inhibitors, dose response, cell-based, Clone20 osteoblasts, firefly luciferase, cherry-picked (AID 624132); format: functional;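 note: firefly luciferase luminescence from reporter carrying the Shn3 3'UTR in osteoblasts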
cells [19] = format: functional, cell-based; settings: HEK-CNG
[20] = inhibitors of clade B AD8 Env fusion, dose response, cell-based, cherry-pick (AID 652062); format: functional;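 note: luciferase signal from cell-cell fusion driven by HIV-1 clade B AD8 Env; potency is for inhibitors of fusion seen as a drop in luminescence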
[21] = control 3'UTR Renilla luciferase suppression, dose response, counter-screen for Shn3 inhibitor project, cell-based, Clone20-Shn3RL, cherry-picked (AID 624133); format: functional
[22] = Late stage counterscreen for inhibitors of Trypanosoma brucei methionyl tRNA synthetase (MetRS): Luminescence-based cell-based high throughput dose response assay to identify compounds that are cytotoxic to Jurkat human T lymphocyte cells.; format: functional
[23] = inhibitors of non-replicating M. tuberculosis, dose response, luciferase, dry powder (AID 651619); format: functional; settings: Mycobacterium tuberculosis
[24] = inhibitors of non-replicating M. tuberculosis, dose response, luciferase, dry powder (AID 651620); format: functional; settings: Mycobacterium tuberculosis
[25] = T. cruzi intracellular amastigote growth inhibition, dose response, imaging, CA-I/72 strain, bovine embryo skeletal muscle, dry powder (AID 651885); format: functional, cell-based
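Throughout, for EC50: target is galanin receptor GalR3 read with a cAMP biosensor in HEK293 cells.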

## C[C@H]1CCCCO[C@@H](CN(C)C(=O)Nc2ccc(C(F)(F)F)cc2)[C@@H](C)CN([C@@H](C)CO)C(=O)c2cc(NC(=O)CCC(F)(F)F)ccc2O1
[1]
  AC50: 31 µM (active)
[2]
  AC50: > 52 µM (inactive)
[3]
  AC50: > 52 µM (inactive)
[4]
  AC50: 4.55 µM (active)

## COC(=O)c1cc(Br)cnc1N1CCC(OC2CCCCC2O)CC1 (stereo not given)
[5]
  IC50: > 50 µM (inactive)

## CCn1nccc1NCc1ccc(N2CCCC2)cc1
[6]
  AC50: > 160 µM (inactive)

## CCCCCO/C(O)=C1\C(C)=Nc2nnnn2C1c1ccccc1Cl (stereo not given)
[7]
  CC50: > 40 µM (active)

## CCc1nc(SCC(=O)NNC(=O)C2CCCCC2)c2ccccc2n1
Major prion protein
  IC50: 1.18 µM (active)
Cytochrome P450 2C9
  AC50: inconclusive
Cytochrome P450 2D6
  AC50: inconclusive
[8]
  IC50: > 69.5 µM (not active)
Cells [9]
  IC50: > 138 µM (inactive)

## C[C@@H]1CCCCO[C@H](CN(C)Cc2ccc(C(F)(F)F)cc2)[C@@H](C)CN([C@@H](C)CO)C(=O)c2cc(NS(=O)(=O)c3ccccc3)ccc2O1
[10]
  AC50: 67.5 µM (active)
Paired box protein Pax-8
  AC50: 4.17 µM (active)
[11]
  AC50: 23.5 µM (active)

## C=CCNC1=C(N(C)C(C)=O)C(=O)c2ccccc2C1=O
[12]
  AC50: 2.59 µM (active)
[13]
  AC50: 8.92 µM (active)

## Cc1cc(C)c(CN2CCN(C(=O)Cn3cnc4c(NCc5ccccc5)ncnc43)CC2)c(C)c1
Galanin receptor type 3
  IC50: 0.363 µM (active)
[14]
  IC50: 2.71 µM (active)
[15]
  AC50: 27.3 µM (active)
[16]
  IC50: > 80 µM (inactive)
[17]
  AC50: 0.773 µM (active)
[18]
  AC50: 0.417 µM (active)
Cells [19]
  EC50: > 29.9 µM (inactive)
[20]
  AC50: 1.59 µM (active)
[21]
  AC50: 0.818 µM (active)

## O=C(CCC(=O)Nc1cccc([N+](=O)[O-])c1)NN=Cc1cccs1
[22]
  IC50: > 83.3 µM (inactive)

## O=S(=O)(Cc1ccccc1)c1nnc(-c2ccccc2)o1
[23]
  IC90: 2 µM (active)
[24]
  IC90: 2 µM (active)

## CC(C)N1C[C@H](C)[C@@H](CN(C)C(=O)OC(C)(C)C)Oc2c(NC(=O)c3ccccc3)cccc2C1=O
[25]
  IC50: > 20 µM (inactive)

Reference: ChEMBL document CHEMBL1201862, “PubChem BioAssay data set” (2004)
